# How the values were obtained:
# TGFβ1-induced hHSC = experiment: α-SMA ELISA in TGFβ1-induced hHSC; assay type: cell-based, human
# Procedure: (§1) The human primary hepatic stellate cells (hHSC) (Innoprot) were cultured under standard conditions, as described above.
# The level of α-SMA was measured using a Sandwich ELISA. Briefly, the wells of an ELISA plate were first coated with the capture antibody (mouse monoclonal anti-ACTA2, Abnova) at 4° C. overnight. […] The cell lysates were transferred into the wells for binding to the capture antibody for a period of 2 h at room temperature. After the washing procedure, the detection antibody (biotinylated mouse monoclonal anti-ACTA2, Abnova) was added for 2 hours at room temperature followed by 3 washes. […] Upon oxidation, TMB forms a water-soluble blue reaction product that becomes yellow with addition of sulfuric acid (solution stop), enabling accurate measurement of the intensity at 450 nm using a spectrophotometer. The developed color is directly proportional to the amount of α-SMA present in the lysate.
# as §1
# CDFF-fed mice = experiment: mouse fibrosing-NASH model, CDFF diet (8 weeks); assay type: in vivo, C57Bl/6J mice
# Procedure: The preventive effects of the combinations of elafibranor with selonsertib, GKT-831 or GS-0976 were assessed in mice fed a choline-deficient, […] diet (CDAA) supplemented with 2% cholesterol, 30% milk fat diet and high fructose corn syrup 55 (55% fructose/45% glucose for a final concentration of 42 g/L) in drinking water (Mells et al J Nutr Biochem 2015) (CDFF diet). 5-6 weeks old male C57Bl/6J mice were fed a control (CSAA) diet (n=4), CDFF (n=12), or CDFF supplemented with elafibranor (1 or 3 mg/kg/day), selonsertib (30 mg/kg/day), GKT-831 ([…]) alone or in combination (n=8 per group) for 8 weeks.
# The body weight, the food and water intake were monitored twice per week. On the last day of treatment, plasma samples were obtained from retro-orbital blood sampling and mice were sacrificed after a 6 h-fasting period. The liver was rapidly excised for biochemical and histological analyses. […]
# A technician blinded to the source of each liver specimen performed histological examinations. […] Briefly, steatosis, lobular inflammation and hepatocyte ballooning were scored. […]
# (§2) Using Quant Center software (3D Histech, including Pattern Quant and Histo Quant modules), collagen-stained areas were quantified. […] The fibrosis area was then expressed as the percentage of the collagen surface to the whole tissue per animal.
# (§3) The hepatic collagen content was determined using the appropriate QuickZyme kit (Total collagen assay, cat # QZB-totcol2). […]
# (§4) Complete hydrolysis of tissue samples in 6M HCl at 95° C. is required before dosing the hydroxyproline. The assay results in the generation of a chromogen with a maximum absorbance at 570 nm. Results are expressed as mg of collagen/g of liver. […]
# The plasmatic concentration of PIIINP was determined using an ELISA assay from Cloud-Clone Corp (cat # SEA573Mu), according to the manufacturer's instructions. […] The enzyme-substrate reaction is terminated by the addition of sulphuric acid solution and the color change is measured spectrophotometrically at a wavelength of 450 nm±10 nm. […]
# [1] = tested on: rats fed a CDAA+1% cholesterol diet; experiment: chronic CDAA+1% cholesterol fibrosing NASH-model of rats (12 weeks); assay type: in vivo, Wistar rats; settings: liver; Percentage over the untreated CDAA + 1% cholesterol rats; GFT505 3 mg/kg/d, OCA 10 mg/kg/d
# Procedure: Evaluation of Elafibranor, OCA and the combination Elafibranor+OCA in a chronic CDAA+1% cholesterol model (12 weeks).
# The preventive effects of Elafibranor alone, OCA alone and the combination of both were assessed in a fibrosing NASH-model of rats fed a CDAA+1% cholesterol diet. 150-175 g male Wistar rats were fed a control (CSAA) diet, CDAA+1% cholesterol diet, or CDAA+1% cholesterol diet supplemented with Elafibranor 1, 3 and 10 mg/kg/day, OCA 10 and 30 mg/kg/day or combined drugs (Elafibranor 1, 3 and 10 mg/kg/day combined to OCA 10 mg/kg/day) for 12 weeks.
# The body weight and the food intake were monitored twice per week. On the last day of treatment, rats were sacrificed after a 6 h fasting period. The liver was rapidly excised for biochemical and histological studies.
# A technician blinded to the source of each liver specimen performed histological examinations. Virtual slides were generated using the Pannoramic 250 scanner from 3D Histech. […] Briefly, steatosis, lobular inflammation and hepatocytes ballooning were scored. […]
# as §2, §3, §4
# Quantitative PCR was then carried out using the CFX96 TOUCH Real-Time PCR Detection System (Biorad). […]
# Expression levels were normalized using the expression of RPLP0 gene as a housekeeping gene of reference in samples. […] Expression levels were determined using the standard curve equation for both the housekeeping gene and the target gene (taking into account the specific PCR efficiency of each target gene).
smiles,measurement,setting,value
"CCCCOCCOc1ccc(-c2ccc3c(c2)/C=C(/C(=O)Nc2ccc([S@@+]([O-])Cc4cncn4CCC)cc2)CCCN3CC(C)C)cc1 [CVC, Cenicriviroc]","α-SMA inhibition, single agent","TGFβ1-induced hHSC; 5 μM alone, TGFβ1-induced hHSC",does not show any antifibrotic activity
same,"antifibrotic effect (α-SMA), single agent, in words","TGFβ1-induced hHSC; TGFβ1-activated hHSC, all doses",did not show a significant effect at all doses
"CN(C)c1cccc(-c2c3c(=O)n(-c4ccccc4Cl)[nH]c3cc(=O)n2C)c1 [GKT-831, 2-(2-chlorophenyl)-4-[3-(dimethylamino)phenyl]-5-methyl-1H-pyrazolo[4,3-c]pyridine-3,6(2H,5H)-dione]","effect on NASH and fibrosis (inflammatory infiltrates, NAFLD activity score, fibrosis)","CDFF-fed mice; GKT-831 60 mg/kg/day, elafibranor 1 mg/kg/day",no beneficial effect
COc1ccccc1[C@H](Cn1c(=O)n(C(C)(C)C(=O)O)c(=O)c2c(C)c(-c3ncco3)sc21)OC1CCOCC1 [GS-0976],effect on liver fat and body weight,CDFF-fed mice; GS-0976 30 mg/kg/day alone,mild beneficial effect
"CC[C@H]1[C@@H](O)[C@@H]2[C@H](CC[C@]3(C)[C@@H]([C@H](C)CCC(=O)O)CC[C@@H]23)[C@@]2(C)CC[C@@H](O)C[C@@H]12 [OCA, obeticholic acid]",CCR5 mRNA level (marker of inflammation),[1],81% ± 28%
same,TGFβ1 mRNA level,[1],110% ± 23%
same,TIMP1 mRNA level,[1],110% ± 43%
"Cc1cc(F)c(C(=O)Nc2cccc(-c3nncn3C(C)C)n2)cc1-n1cnc(C2CC2)c1 [Selonsertib, selonsertib]","hepatic fibrosis (histology, hepatic collagen content, release of PIIINP and TIMP-1)","CDFF-fed mice; 8 weeks, elafibranor 3 mg/kg/day, selonsertib 30 mg/kg/day",improved hepatic fibrosis
